Experimental data as given in ChEMBL document CHEMBL4507256 (2021).

Legend:
[1] = test system: Tyrosine-protein kinase ABL1 (Homo sapiens), P00519 [H396P]; details: Compound concentration 1000.0 nM
[2] = molecular target: Activin receptor type-1-like (Homo sapiens) (UniProt P37023); details: Compound concentration 1000.0 nM
[3] = molecular target: Cyclin-dependent kinase 4 (Homo sapiens) (UniProt P11802); details: Compound concentration 1000.0 nM
[4] = molecular target: Cyclin-dependent kinase-like 3 (Homo sapiens) (UniProt Q8IVW4); details: Compound concentration 1000.0 nM
[5] = molecular target: Dual specificity protein kinase CLK1 (Homo sapiens) (UniProt P49759); details: Compound concentration 1000.0 nM
[6] = molecular target: Casein kinase I isoform gamma-2 (Homo sapiens) (UniProt P78368); details: Compound concentration 1000.0 nM
[7] = molecular target: Serine/threonine-protein kinase MRCK gamma (Homo sapiens) (UniProt Q6DT37); details: Compound concentration 1000.0 nM
[8] = test system: Epidermal growth factor receptor (Homo sapiens), P00533 [UNDEFINED MUTATION]; details: Compound concentration 1000.0 nM
[9] = molecular target: Ephrin type-B receptor 4 (Homo sapiens) (UniProt P54760); details: Compound concentration 1000.0 nM
[10] = molecular target: Ephrin type-B receptor 6 (Homo sapiens) (UniProt O15197); details: Compound concentration 1000.0 nM
[11] = molecular target: Receptor tyrosine-protein kinase erbB-3 (Homo sapiens) (UniProt P21860); details: Compound concentration 1000.0 nM
[12] = molecular target: Mitogen-activated protein kinase 15 (Homo sapiens) (UniProt Q8TD08); details: Compound concentration 1000.0 nM
[13] = molecular target: Tyrosine-protein kinase Fer (Homo sapiens) (UniProt P16591); details: Compound concentration 1000.0 nM
[14] = test system: Receptor-type tyrosine-protein kinase FLT3 (Homo sapiens), P36888 [UNDEFINED MUTATION]; details: Compound concentration 1000.0 nM
[15] = test system: Receptor-type tyrosine-protein kinase FLT3 (Homo sapiens), P36888 [UNDEFINED MUTATION]; details: Compound concentration 1000.0 nM; remark: listed apart in the source
[16] = test system: Receptor-type tyrosine-protein kinase FLT3 (Homo sapiens), P36888 [UNDEFINED MUTATION]; details: Compound concentration 1000.0 nM; remark: listed apart in the source
[17] = test system: Mast/stem cell growth factor receptor Kit (Homo sapiens), P10721 [D816V]; details: Compound concentration 1000.0 nM
[18] = molecular target: Mast/stem cell growth factor receptor Kit (Homo sapiens) (UniProt P10721); details: Compound concentration 1000.0 nM
[19] = molecular target: Leukocyte tyrosine kinase receptor (Homo sapiens) (UniProt P29376); details: Compound concentration 1000.0 nM
[20] = molecular target: Mitogen-activated protein kinase kinase kinase kinase 2 (Homo sapiens) (UniProt Q12851); details: Compound concentration 1000.0 nM
[21] = molecular target: Mitogen-activated protein kinase kinase kinase kinase 5 (Homo sapiens) (UniProt Q9Y4K4); details: Compound concentration 1000.0 nM
[22] = molecular target: Serine/threonine-protein kinase MARK1 (Homo sapiens) (UniProt Q9P0L2); details: Compound concentration 1000.0 nM
[23] = test system: Hepatocyte growth factor receptor (Homo sapiens), P08581 [M1250T]; details: Compound concentration 1000.0 nM
[24] = molecular target: Serine/threonine-protein kinase NIM1 (Homo sapiens) (UniProt Q8IY84); details: Compound concentration 1000.0 nM
[25] = molecular target: Serine/threonine-protein kinase PAK 2 (Homo sapiens) (UniProt Q13177); details: Compound concentration 1000.0 nM
[26] = molecular target: Cyclin-dependent kinase 16 (Homo sapiens) (UniProt Q00536); details: Compound concentration 1000.0 nM
[27] = molecular target: Phosphatidylinositol 3-kinase C2 domain-containing subunit gamma (Homo sapiens) (UniProt O75747); details: Compound concentration 1000.0 nM
[28] = molecular target: Serine/threonine-protein kinase PLK2 (Homo sapiens) (UniProt Q9NYY3); details: Compound concentration 1000.0 nM
[29] = molecular target: Protein kinase C delta type (Homo sapiens) (UniProt Q05655); details: Compound concentration 1000.0 nM
[30] = test system: Proto-oncogene tyrosine-protein kinase receptor Ret (Homo sapiens), P07949 [V804M]; details: Compound concentration 1000.0 nM
[31] = molecular target: Dual serine/threonine and tyrosine protein kinase (Homo sapiens) (UniProt Q6XUX3); details: Compound concentration 1000.0 nM
[32] = molecular target: Proto-oncogene tyrosine-protein kinase ROS (Homo sapiens) (UniProt P08922); details: Compound concentration 1000.0 nM
[33] = molecular target: Ribosomal protein S6 kinase alpha-6 (Homo sapiens) (UniProt Q9UK32); details: Compound concentration 1000.0 nM
[34] = molecular target: Serine/threonine-protein kinase SBK1 (Homo sapiens) (UniProt Q52WX2); details: Compound concentration 1000.0 nM
[35] = molecular target: Serine/threonine-protein kinase 35 (Homo sapiens) (UniProt Q8TDR2); details: Compound concentration 1000.0 nM
[36] = molecular target: Mitogen-activated protein kinase kinase kinase 7 (Homo sapiens) (UniProt O43318); details: Compound concentration 1000.0 nM
[37] = molecular target: Serine/threonine-protein kinase TAO2 (Homo sapiens) (UniProt Q9UL54); details: Compound concentration 1000.0 nM
[38] = molecular target: Dual specificity testis-specific protein kinase 1 (Homo sapiens) (UniProt Q15569); details: Compound concentration 1000.0 nM
[39] = molecular target: Serine/threonine-protein kinase WNK1 (Homo sapiens) (UniProt Q9H4A3); details: Compound concentration 1000.0 nM
[40] = molecular target: Mitogen-activated protein kinase kinase kinase 20 (Homo sapiens) (UniProt Q9NYL2); details: Compound concentration 1000.0 nM
[41] = molecular target: 5-hydroxytryptamine receptor 1E (Homo sapiens) (UniProt P28566); details: Compound concentration 10.0 uM
[42] = molecular target: D(2) dopamine receptor (Homo sapiens) (UniProt P14416); details: Compound concentration 10.0 uM
[43] = molecular target: Sodium-dependent serotonin transporter (Homo sapiens) (UniProt P31645); details: Compound concentration 10.0 uM
[44] = molecular target: Alpha-2C adrenergic receptor (Homo sapiens) (UniProt P18825); details: Compound concentration 10.0 uM
[45] = molecular target: Sigma intracellular receptor 2 (Homo sapiens) (UniProt Q5BJF2); details: Compound concentration 10.0 uM
Sigma intracellular receptor 2 (Homo sapiens), sequence (Q5BJF2 whole entry): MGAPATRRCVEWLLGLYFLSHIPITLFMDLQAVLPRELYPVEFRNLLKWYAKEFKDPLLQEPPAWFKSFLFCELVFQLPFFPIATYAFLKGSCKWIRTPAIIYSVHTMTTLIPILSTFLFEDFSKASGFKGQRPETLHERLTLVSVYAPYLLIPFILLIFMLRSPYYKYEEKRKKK

Receptor-type tyrosine-protein kinase FLT3 (Homo sapiens), P36888 [UNDEFINED MUTATION], sequence (P36888 whole entry, looked up, stated change not applied): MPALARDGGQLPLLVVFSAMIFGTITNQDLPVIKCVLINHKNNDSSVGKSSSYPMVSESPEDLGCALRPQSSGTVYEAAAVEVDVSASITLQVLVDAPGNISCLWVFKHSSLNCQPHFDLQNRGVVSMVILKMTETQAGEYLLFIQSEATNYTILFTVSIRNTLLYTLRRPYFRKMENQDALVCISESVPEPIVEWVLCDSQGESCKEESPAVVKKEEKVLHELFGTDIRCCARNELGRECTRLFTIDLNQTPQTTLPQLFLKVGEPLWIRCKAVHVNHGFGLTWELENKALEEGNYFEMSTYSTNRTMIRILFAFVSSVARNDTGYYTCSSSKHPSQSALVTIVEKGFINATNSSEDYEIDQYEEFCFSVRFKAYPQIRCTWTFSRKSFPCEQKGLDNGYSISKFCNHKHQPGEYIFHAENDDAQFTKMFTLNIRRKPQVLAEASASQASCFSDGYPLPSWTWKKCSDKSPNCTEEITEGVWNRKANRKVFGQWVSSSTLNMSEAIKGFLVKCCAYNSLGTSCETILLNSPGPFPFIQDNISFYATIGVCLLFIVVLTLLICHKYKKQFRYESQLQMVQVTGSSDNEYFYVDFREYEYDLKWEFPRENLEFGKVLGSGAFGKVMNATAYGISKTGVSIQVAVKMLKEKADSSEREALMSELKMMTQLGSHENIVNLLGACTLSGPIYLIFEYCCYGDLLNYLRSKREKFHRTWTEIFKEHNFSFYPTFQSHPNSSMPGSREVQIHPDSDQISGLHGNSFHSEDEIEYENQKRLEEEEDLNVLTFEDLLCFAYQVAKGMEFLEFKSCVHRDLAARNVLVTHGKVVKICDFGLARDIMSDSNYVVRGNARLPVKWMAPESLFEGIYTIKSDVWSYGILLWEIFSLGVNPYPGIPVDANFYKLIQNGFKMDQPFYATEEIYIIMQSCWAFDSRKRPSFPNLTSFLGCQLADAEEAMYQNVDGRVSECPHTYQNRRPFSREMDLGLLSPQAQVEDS
Mitogen-activated protein kinase 15 (Homo sapiens), sequence (Q8TD08 whole entry): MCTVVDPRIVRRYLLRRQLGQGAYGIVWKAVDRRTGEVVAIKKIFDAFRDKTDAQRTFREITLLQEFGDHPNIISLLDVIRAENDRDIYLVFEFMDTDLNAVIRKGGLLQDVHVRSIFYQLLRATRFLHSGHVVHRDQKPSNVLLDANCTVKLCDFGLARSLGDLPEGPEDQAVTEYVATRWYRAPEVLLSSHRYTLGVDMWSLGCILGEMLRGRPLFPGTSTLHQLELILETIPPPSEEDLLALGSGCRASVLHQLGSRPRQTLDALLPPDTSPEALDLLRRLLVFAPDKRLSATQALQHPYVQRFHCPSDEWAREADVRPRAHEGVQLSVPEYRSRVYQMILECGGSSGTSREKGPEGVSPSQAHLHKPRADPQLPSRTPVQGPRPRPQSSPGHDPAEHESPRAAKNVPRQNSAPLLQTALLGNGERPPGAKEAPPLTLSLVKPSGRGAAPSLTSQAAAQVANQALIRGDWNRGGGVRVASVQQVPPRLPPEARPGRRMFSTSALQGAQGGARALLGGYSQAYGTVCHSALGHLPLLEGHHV
D(2) dopamine receptor (Homo sapiens), sequence (P14416 whole entry): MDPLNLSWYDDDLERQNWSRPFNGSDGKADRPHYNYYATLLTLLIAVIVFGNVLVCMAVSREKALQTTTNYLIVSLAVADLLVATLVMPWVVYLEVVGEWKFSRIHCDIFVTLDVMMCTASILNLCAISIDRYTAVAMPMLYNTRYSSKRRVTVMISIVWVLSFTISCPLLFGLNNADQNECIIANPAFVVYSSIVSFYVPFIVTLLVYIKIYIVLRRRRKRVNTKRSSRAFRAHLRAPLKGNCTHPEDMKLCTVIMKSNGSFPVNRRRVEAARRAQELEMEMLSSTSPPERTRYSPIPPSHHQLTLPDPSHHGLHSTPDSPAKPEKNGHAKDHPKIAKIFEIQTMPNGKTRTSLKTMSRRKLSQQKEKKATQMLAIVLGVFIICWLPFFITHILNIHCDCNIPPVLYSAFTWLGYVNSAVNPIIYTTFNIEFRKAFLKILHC
Serine/threonine-protein kinase PAK 2 (Homo sapiens), sequence (Q13177 whole entry): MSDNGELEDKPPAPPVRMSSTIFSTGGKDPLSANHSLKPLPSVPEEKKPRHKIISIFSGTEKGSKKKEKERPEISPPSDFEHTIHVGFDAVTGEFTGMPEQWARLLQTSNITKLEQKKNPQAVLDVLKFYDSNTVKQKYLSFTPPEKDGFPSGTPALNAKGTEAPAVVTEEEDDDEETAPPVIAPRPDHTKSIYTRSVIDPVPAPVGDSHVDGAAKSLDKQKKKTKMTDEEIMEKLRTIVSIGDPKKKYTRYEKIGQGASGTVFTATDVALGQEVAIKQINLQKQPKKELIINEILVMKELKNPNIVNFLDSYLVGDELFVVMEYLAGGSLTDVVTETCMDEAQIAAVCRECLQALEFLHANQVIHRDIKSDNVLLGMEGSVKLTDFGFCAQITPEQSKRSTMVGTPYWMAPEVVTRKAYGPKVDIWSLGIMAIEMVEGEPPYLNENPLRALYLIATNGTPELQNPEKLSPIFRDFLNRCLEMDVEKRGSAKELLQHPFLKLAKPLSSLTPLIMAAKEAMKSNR
Serine/threonine-protein kinase WNK1 (Homo sapiens), sequence (Q9H4A3 whole entry, looked up): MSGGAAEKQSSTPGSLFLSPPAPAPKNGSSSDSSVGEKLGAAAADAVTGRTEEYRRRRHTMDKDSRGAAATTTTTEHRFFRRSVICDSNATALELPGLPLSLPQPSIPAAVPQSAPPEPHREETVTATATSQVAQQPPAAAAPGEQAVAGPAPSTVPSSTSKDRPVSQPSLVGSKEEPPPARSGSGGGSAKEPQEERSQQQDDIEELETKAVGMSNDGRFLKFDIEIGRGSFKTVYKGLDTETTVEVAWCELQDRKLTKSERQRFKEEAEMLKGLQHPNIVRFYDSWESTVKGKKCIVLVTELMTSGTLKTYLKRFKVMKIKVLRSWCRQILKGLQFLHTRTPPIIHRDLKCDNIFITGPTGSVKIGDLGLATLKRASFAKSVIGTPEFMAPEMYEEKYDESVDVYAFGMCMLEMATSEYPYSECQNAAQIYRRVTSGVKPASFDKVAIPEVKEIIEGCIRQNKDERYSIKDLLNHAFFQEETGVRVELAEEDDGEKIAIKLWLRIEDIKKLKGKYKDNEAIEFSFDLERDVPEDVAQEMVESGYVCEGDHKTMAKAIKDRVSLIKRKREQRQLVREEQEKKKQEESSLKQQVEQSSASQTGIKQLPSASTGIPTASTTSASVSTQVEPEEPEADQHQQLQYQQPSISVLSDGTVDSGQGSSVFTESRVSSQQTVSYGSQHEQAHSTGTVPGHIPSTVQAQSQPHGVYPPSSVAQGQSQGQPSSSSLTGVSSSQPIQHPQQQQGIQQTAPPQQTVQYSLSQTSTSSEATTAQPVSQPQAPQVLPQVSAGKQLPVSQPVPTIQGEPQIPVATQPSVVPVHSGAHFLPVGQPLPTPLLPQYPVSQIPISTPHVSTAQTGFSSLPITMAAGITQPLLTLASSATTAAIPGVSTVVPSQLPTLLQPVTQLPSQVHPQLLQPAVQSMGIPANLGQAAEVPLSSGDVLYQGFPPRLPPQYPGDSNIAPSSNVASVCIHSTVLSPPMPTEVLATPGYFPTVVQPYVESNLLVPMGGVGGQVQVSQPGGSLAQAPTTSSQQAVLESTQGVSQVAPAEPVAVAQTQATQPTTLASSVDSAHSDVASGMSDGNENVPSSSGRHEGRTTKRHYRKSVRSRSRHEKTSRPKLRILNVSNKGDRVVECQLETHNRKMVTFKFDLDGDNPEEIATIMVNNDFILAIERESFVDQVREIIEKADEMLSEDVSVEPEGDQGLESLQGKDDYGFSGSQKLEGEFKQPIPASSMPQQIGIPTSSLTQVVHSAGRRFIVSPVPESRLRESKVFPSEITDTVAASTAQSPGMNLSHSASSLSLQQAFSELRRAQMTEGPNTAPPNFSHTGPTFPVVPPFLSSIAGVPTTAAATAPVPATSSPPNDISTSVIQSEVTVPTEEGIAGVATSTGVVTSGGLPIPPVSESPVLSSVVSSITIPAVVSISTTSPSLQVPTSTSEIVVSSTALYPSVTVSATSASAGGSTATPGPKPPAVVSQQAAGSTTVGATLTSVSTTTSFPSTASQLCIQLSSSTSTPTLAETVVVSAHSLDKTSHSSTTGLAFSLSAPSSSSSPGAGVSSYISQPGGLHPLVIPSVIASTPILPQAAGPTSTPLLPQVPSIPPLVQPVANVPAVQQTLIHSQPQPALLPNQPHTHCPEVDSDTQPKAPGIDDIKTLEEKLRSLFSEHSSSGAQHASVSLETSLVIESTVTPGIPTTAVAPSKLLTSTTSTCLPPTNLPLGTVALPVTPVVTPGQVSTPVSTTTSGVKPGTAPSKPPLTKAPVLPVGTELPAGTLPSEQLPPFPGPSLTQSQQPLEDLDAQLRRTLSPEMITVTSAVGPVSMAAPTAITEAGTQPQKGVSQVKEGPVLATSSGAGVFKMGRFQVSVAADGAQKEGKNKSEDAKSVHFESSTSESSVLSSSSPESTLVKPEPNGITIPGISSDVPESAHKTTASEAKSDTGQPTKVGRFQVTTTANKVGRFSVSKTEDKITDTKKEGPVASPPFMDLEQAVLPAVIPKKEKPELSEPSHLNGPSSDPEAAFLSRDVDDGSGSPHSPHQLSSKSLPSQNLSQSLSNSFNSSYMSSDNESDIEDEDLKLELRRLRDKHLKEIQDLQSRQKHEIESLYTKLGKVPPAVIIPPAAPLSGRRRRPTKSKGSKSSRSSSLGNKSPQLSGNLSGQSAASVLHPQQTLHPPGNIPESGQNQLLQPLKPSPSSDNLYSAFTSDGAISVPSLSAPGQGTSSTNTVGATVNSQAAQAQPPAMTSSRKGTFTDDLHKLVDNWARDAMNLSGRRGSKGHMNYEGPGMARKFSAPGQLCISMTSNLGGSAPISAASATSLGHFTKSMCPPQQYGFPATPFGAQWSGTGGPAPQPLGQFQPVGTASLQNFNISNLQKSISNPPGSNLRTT

CCC(=N\O)/C(C)=C/c1ccc(F)cc1 [A-079]
inactive: residual activity [1] 100% | residual activity [2] 76% | residual activity [3] 78% | residual activity [4] 80% | residual activity [5] 79% | residual activity [6] 87% | residual activity [7] 73% | residual activity [8] 69% | residual activity [9] 73% | residual activity [10] 95% | residual activity [11] 100% | residual activity [12] 95% | residual activity [13] 74% | residual activity [14] 94% | residual activity [15] 76% | residual activity [16] 67% | residual activity [17] 87% | residual activity [18] 80% | residual activity [19] 87% | residual activity [20] 97% | residual activity [21] 80% | residual activity [22] 100% | residual activity [23] 76% | residual activity [24] 94% | residual activity [25] 82% | residual activity [26] 86% | residual activity [27] 75% | residual activity [28] 78% | residual activity [29] 100% | residual activity [30] 100% | residual activity [31] 66% | residual activity [32] 87% | residual activity [33] 94% | residual activity [34] 100% | residual activity [35] 100% | residual activity [36] 81% | residual activity [37] 94% | residual activity [38] 82% | residual activity [39] 83% | residual activity [40] 84% | inhibition [41] 6.66% | inhibition [42] -8.66% | inhibition [43] 13% | inhibition [44] 8.29% | inhibition [45] 22.6%

CCC(=N\O)/C(C)=C/c1ccc(F)c(C)c1 [A-226]
inactive: residual activity [1] 100% | residual activity [2] 98% | residual activity [3] 100% | residual activity [4] 86% | residual activity [5] 100% | residual activity [6] 100% | residual activity [7] 85% | residual activity [8] 100% | residual activity [9] 100% | residual activity [10] 100% | residual activity [11] 76% | residual activity [12] 100% | residual activity [13] 80% | residual activity [14] 100% | residual activity [15] 97% | residual activity [16] 100% | residual activity [17] 94% | residual activity [18] 100% | residual activity [19] 61% | residual activity [20] 100% | residual activity [21] 100% | residual activity [22] 99% | residual activity [23] 88% | residual activity [24] 100% | residual activity [25] 79% | residual activity [26] 100% | residual activity [27] 98% | residual activity [28] 100% | residual activity [29] 98% | residual activity [30] 100% | residual activity [31] 95% | residual activity [32] 88% | residual activity [33] 98% | residual activity [34] 100% | residual activity [35] 100% | residual activity [36] 99% | residual activity [37] 100% | residual activity [38] 73% | residual activity [39] 100% | residual activity [40] 76% | inhibition [41] 4.47% | inhibition [42] -6.57% | inhibition [43] 8.28% | inhibition [44] 15.7% | inhibition [45] 33.4%
